MIC data for five compounds are collected here from patent publication US4137314A, “7-Dithioacetamido cephalosporins and pharmaceutical compositions and methods employing them having antibacterial activity” (SmithKline Corporation, priority 1977, dated 1979).

Test systems include Kleb. pneumo. SK4200; Kleb. pneumo. SK1200; Pseudo aeruginosa HH63; Serratia marc. ATCC13880; Proteus morgani 179.
Holding throughout (assay): MIC, standard agar inclusion method
Common to all, as to type: cell-based

The next experiment has as its system S. aureus HH127. The conditions noted are these: Staphylococcus aureus.
The next experiment relates to S. aureus SK23390. The conditions noted are these: Staphylococcus aureus.
The subject of another experiment is S. aureus Villaluz. The following applies: Staphylococcus aureus.
The subject of another experiment is Strep. faecalis HH34358. The following applies: Enterococcus faecalis.
A further experiment deals with E. coli SK12140. The conditions noted are these: Escherichia coli.
For the next experiment, the system named is E. coli HH33779. The conditions noted are these: Escherichia coli.
In experiment [1] the test system is Salmonella paratuphi ATCC12176.
Experiment [2] relates to Shegella paradysenteriae HH117.
In another experiment the test system is Entero. aerogenes 13048. The following applies: Klebsiella aerogenes.
In the next experiment the test system is Entero. cloacae HH31254. The following applies: Enterobacter cloacae.
Setting [3] is: Entero. aerogenes 13048, agar inclusion, read-out: MIC.
Where [4] appears, read: Entero. cloacae HH31254, agar inclusion, read-out: MIC.

The structures appear in SMILES notation. ≈ marks a conversion by molar mass, not a printed value. Like-named read-outs stand apart in the source and are kept apart here.

`CSSCC(=O)NC1C(=O)N2C(C(=O)O)=C(CSc3nnnn3C)CSC12` (stereo not drawn) [A, 7-methyldithioacetamido-3-(1-methyltetrazol-5-yl-thiomethyl)-3-cephem-4-carboxylic acid]: the MIC (as a rule, the smallest concentration in the dilution series that meets the test's criterion for growth inhibition) is 0.4 µg/mL (≈ 0.892 µM) with S. aureus HH127; 0.4 µg/mL (≈ 0.892 µM) against S. aureus SK23390; 6.3 µg/mL (≈ 14 µM) against S. aureus Villaluz; 12.5 µg/mL (≈ 27.9 µM) in the experiment on Strep. faecalis HH34358; 3.1 µg/mL (≈ 6.91 µM) against E. coli SK12140; 6.3 µg/mL (≈ 14 µM) in the experiment with E. coli HH33779. Moreover, the MIC was 3.1 µg/mL (≈ 6.91 µM) with Kleb. pneumo. SK4200; 0.8 µg/mL (≈ 1.78 µM) with Kleb. pneumo. SK1200; 0.8 µg/mL (≈ 1.78 µM) in [1]; 0.8 µg/mL (≈ 1.78 µM) in [2]; > 200 µg/mL in the experiment on Pseudo aeruginosa HH63; > 200 µg/mL against Serratia marc. ATCC13880. Also, the values for the minimal inhibitory concentration (MIC) with Proteus morgani 179, with Entero. aerogenes 13048 (setting [3]) and in the experiment with Entero. cloacae HH31254 (setting [4]) were > 200 µg/mL, 3.1 µg/mL (≈ 6.91 µM) and 1.6 µg/mL (≈ 3.57 µM), respectively.
Turning to `Cn1nnnc1SCC1=C(C(=O)O)N2C(=O)C(NC(=O)CSSC(Cl)(Cl)Cl)C2SC1` (stereo not drawn) [B, 7-(trichloromethyldithioacetamido)-3-(1-methyltetrazol-5-ylthiomethyl)-3-cephem-4-carboxylic acid], the MIC with S. aureus HH127 was determined as 3.1 µg/mL (≈ 5.62 µM); with S. aureus SK23390, 3.1 µg/mL (≈ 5.62 µM); against S. aureus Villaluz it was 50 µg/mL (≈ 90.6 µM); against Strep. faecalis HH34358 it was 50 µg/mL (≈ 90.6 µM); against E. coli SK12140 it was 12.5 µg/mL (≈ 22.6 µM); with E. coli HH33779 it was 100 µg/mL (≈ 181 µM). Further, the MIC against Kleb. pneumo. SK1200 was 6.3 µg/mL (≈ 11.4 µM); in experiment [1], 6.3 µg/mL (≈ 11.4 µM); in [2], 12.5 µg/mL (≈ 22.6 µM); with Pseudo aeruginosa HH63 it was > 200 µg/mL; with Serratia marc. ATCC13880, > 200 µg/mL; in the experiment on Proteus morgani 179 it was > 200 µg/mL. The MIC with Entero. aerogenes 13048 (setting [3]) was 100 µg/mL (≈ 181 µM); in the experiment with Entero. cloacae HH31254 (HH31254) it was 12.5 µg/mL (≈ 22.6 µM).
Consider `Cn1nnnc1SCC1=C(C(=O)O)N2C(=O)C(NC(=O)CSSC(F)(F)F)C2SC1` (stereo not drawn) [C], for which the MIC in the experiment with S. aureus HH127 worked out at 3.1 µg/mL (≈ 6.17 µM); with S. aureus SK23390 it was 3.1 µg/mL (≈ 6.17 µM); in the experiment with S. aureus Villaluz, 6.3 µg/mL (≈ 12.5 µM); in the experiment on Strep. faecalis HH34358, 50 µg/mL (≈ 99.5 µM); with E. coli SK12140 it was 12.5 µg/mL (≈ 24.9 µM); in the experiment on E. coli HH33779, 25 µg/mL (≈ 49.7 µM). Moreover, the MIC against Kleb. pneumo. SK4200 was 6.3 µg/mL (≈ 12.5 µM); in the experiment on Kleb. pneumo. SK1200, 3.1 µg/mL (≈ 6.17 µM); in [1] it was 6.3 µg/mL (≈ 12.5 µM); in [2], 3.1 µg/mL (≈ 6.17 µM); with Pseudo aeruginosa HH63 it was > 100 µg/mL; with Serratia marc. ATCC13880, > 100 µg/mL. Further, the minimum inhibitory concentration (MIC) with Proteus morgani 179 (Proteus morgani 179, agar inclusion, read-out: MIC) is > 100 µg/mL; in the experiment on Entero. aerogenes 13048 (setting [3]), 100 µg/mL (≈ 199 µM); in the experiment on Entero. cloacae HH31254 (setting [4]) it was 12.5 µg/mL (≈ 24.9 µM).
On to `Cc1nnc(SCC2=C(C(=O)O)N3C(=O)[C@@H](NC(=O)Cn4cnnn4)[C@H]3SC2)s1` [Cefazolin, reference compound], for which the MIC in the experiment with S. aureus HH127 came to 0.4 µg/mL (≈ 0.88 µM); against S. aureus SK23390 it was 0.4 µg/mL (≈ 0.88 µM); in the experiment on S. aureus Villaluz it was 25 µg/mL (≈ 55 µM); against Strep. faecalis HH34358, 6.3 µg/mL (≈ 13.9 µM); in the experiment on E. coli SK12140 it was 1.6 µg/mL (≈ 3.52 µM); in the experiment with E. coli HH33779, 3.1 µg/mL (≈ 6.82 µM). For the same compound, the minimal inhibitory concentration (MIC) in the experiment with Kleb. pneumo. SK4200 was 3.1 µg/mL (≈ 6.82 µM); in [1], 1.6 µg/mL (≈ 3.52 µM); in [2], 0.8 µg/mL (≈ 1.76 µM); against Pseudo aeruginosa HH63 it was > 200 µg/mL; in the experiment on Serratia marc. ATCC13880, > 200 µg/mL; with Proteus morgani 179, > 200 µg/mL. The compound further displayed an MIC against Entero. aerogenes 13048 (13048) of 1.6 µg/mL (≈ 3.52 µM).
`CSSCC(=O)NC1C(=O)N2C(C(=O)O)=C(COC(C)=O)CSC12` (stereo not drawn) [D, 7-(methyldithioacetamido)-cephalosporanic acid]: the MIC is 0.2 µg/mL (≈ 0.51 µM) in the experiment with S. aureus HH127; 0.2 µg/mL (≈ 0.51 µM) against S. aureus SK23390; 3.1 µg/mL (≈ 7.9 µM) against S. aureus Villaluz; 12.5 µg/mL (≈ 31.8 µM) against Strep. faecalis HH34358; 6.3 µg/mL (≈ 16.1 µM) in the experiment on E. coli SK12140; 12.5 µg/mL (≈ 31.8 µM) with E. coli HH33779. The MIC against Kleb. pneumo. SK4200 is 3.1 µg/mL (≈ 7.9 µM); with Kleb. pneumo. SK1200 it was 3.1 µg/mL (≈ 7.9 µM); in experiment [1], 6.3 µg/mL (≈ 16.1 µM); in experiment [2], 1.6 µg/mL (≈ 4.08 µM); against Pseudo aeruginosa HH63, > 200 µg/mL; against Serratia marc. ATCC13880, > 200 µg/mL. Further, the MIC against Proteus morgani 179 is > 200 µg/mL; in the experiment with Entero. aerogenes 13048 (setting [3]) it was 25 µg/mL (≈ 63.7 µM); in the experiment on Entero. cloacae HH31254 (setting [4]), 25 µg/mL (≈ 63.7 µM).
